Measured values reported in US12171740B2, “Compositions and methods for treating allergic inflammatory conditions” (CHILDREN'S HOSPITAL MEDICAL CENTER, priority 2016, dated 2024).
“Also recorded” adds a separate entry of the source. One block for each molecule: values may come before it.

Columns and labels:
KLK5 [1] = target: T1, KLK5 (Homo sapiens, UniProt Q9Y337); assay: Inhibition of KLK5 by organic compounds (dose response); type: biochemical
T1 sequence (Q9Y337 23-293): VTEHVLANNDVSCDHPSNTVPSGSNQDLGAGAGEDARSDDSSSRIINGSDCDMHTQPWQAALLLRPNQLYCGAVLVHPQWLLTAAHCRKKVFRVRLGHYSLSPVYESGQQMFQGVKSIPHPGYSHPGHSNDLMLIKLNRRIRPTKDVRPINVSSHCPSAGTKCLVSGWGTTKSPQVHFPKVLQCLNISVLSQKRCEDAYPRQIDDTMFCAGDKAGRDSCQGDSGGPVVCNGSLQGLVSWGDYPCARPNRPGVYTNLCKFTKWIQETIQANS
Procedure: FIGS. 14A-14B show the effect of organic compounds on KLK5 activity. FIG. 14A is a dose response curve for 3-(3-chlorophenyl) carboxy-7-hydroxymethyl coumarin. FIG. 14B is a dose response curve for 3-carboxy-7-hydroxymethyl coumarin.
Two organic compounds were tested for their inhibition of KLK5.

[2] = tested on: SPINK7-depleted EPC2 cells; assay: Barrier function (electrical resistance) of SPINK7-depleted EPC2 cells during ALI differentiation; type: cell-based, human; conditions: treated with A1AT during ALI differentiation, Day 7
Procedure: (§1) FIG. 12A is a bar graph showing FPKM values of uPA in the esophagus of EoE patients and controls. FIG. 12B is a bar graph showing analysis of the uPA proteolytic activity (active units—AU) in esophageal biopsies from 6 normal and 6 EoE patients. […] FIG. 12D is a bar graph showing quantification of trypsin-like activity in supernatants derived from NSC or SPINK7-depleted EPC2 cells that were treated with A1AT or a vehicle following ALI differentiation. FIG. 12E are electrical resistance measurements of NSC or SPINK7-depleted EPC2 cells that were treated with A1AT or a vehicle during ALI differentiation (Day 7). FIG. 12F are H&E staining images of NSC or SPINK7-depleted EPC2 cells that were treated with A1AT or a vehicle after ALI differentiation (Day 14)-add. FIG. 12G are images of co-immunofluorescence staining of E-cadherin and Filaggrin of NSC or SPINK7-depleted EPC2 cells that were treated with A1AT or a vehicle following ALI differentiation.
Paracellular and transcellular permeability of the ALI cultured cells were analyzed. […] Transepithelial electrical resistance (A) was measured from NSC and SPINK7-depleted EPC2 cells measured at day 7 and 8 during ALI differentiation (data not shown; data were representative of four experiments performed in triplicate and are represented as the mean±Sd). […]

Filaggrin = assay: Co-immunofluorescence staining of filaggrin in SPINK7-depleted EPC2 cells; type: cell-based, human; conditions: following ALI differentiation
Procedure: as §1
(§2) To extend the potential benefit of A1AT, its ability to restore the epithelial changes induced by SPINK7 loss was […]. […] Consistent with these findings, A1AT administration increased filaggrin expression (FIG. 12G)

[3] = tested on: serine proteinases with trypsin-like activity; assay: Trypsin-like / proteolytic activity in supernatants of SPINK7-depleted EPC2 cells; type: cell-based, human; conditions: following ALI differentiation
Procedure: (§3) FIG. 10A is a bar graph showing quantification of uPA activity in supernatants derived from (NSC) or SPINK7-depleted EPC2 cells following during ALI differentiation (day 7-9). FIG. 10B is a bar graph showing quantification of the activity of serine proteinases with trypsin-like activity in supernatants derived from (NSC) or SPINK7-depleted EPC2 cells and primary esophageal cells following ALI differentiation. Proteinase activity in the supernatants is calculated as nM concentrations according to standard dilutions of recombinant hKLK5. In vitro activity assays of KLK5 (FIG. 10C) KLK7 (FIG. 10D) and KLK11 (FIG. 10E) in the presence of the indicated concentrations of SPINK7. Data are represented as the mean±s.e.m.
FIG. 12A is a bar graph showing FPKM values of uPA in the esophagus of EoE patients and controls. FIG. 12B is a bar graph showing analysis of the uPA proteolytic activity (active units—AU) in esophageal biopsies from 6 normal and 6 EoE patients. […] FIG. 12D is a bar graph showing quantification of trypsin-like activity in supernatants derived from NSC or SPINK7-depleted EPC2 cells that were treated with A1AT or a vehicle following ALI differentiation. […]
The known SPINK7 target uPA (Cheng, X., Lu, S. H. & Cui, Y. Cancer letters 290, 87-95 (2010), and Huang, G. et al. Carcinogenesis 28, 2274-2281(2007)) was analyzed. […]

[4] = tested on: SPINK7-depleted EPC2 cells; assay: H&E staining of SPINK7-depleted EPC2 cells after ALI differentiation (epithelial integrity); type: cell-based, human; conditions: ALI differentiation Day 14
Procedure: as §1, §2

KLK11 = target: T2, KLK11 (Homo sapiens, UniProt Q9UBX7); assay: In vitro KLK11 activity assay in the presence of SPINK7; type: biochemical
T2 sequence (Q9UBX7 54-282): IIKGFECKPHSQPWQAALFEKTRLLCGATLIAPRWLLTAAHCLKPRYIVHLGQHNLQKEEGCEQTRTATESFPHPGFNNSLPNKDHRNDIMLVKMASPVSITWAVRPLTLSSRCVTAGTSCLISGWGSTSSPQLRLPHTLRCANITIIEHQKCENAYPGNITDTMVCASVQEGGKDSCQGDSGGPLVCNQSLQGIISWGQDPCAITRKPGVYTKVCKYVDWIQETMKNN
Procedure: as §3

KLK5 [5] = target: T1, KLK5; assay: In vitro KLK5 activity assay in the presence of SPINK7; type: biochemical
Procedure: as §3

uPA = uPA (Homo sapiens, UniProt P00749); assay: uPA proteolytic activity inhibition by SPINK7; type: biochemical; conditions: data not shown
Procedure: The known SPINK7 target uPA (Cheng, X., Lu, S. H. & Cui, Y. Cancer letters 290, 87-95 (2010), and Huang, G. et al. Carcinogenesis 28, 2274-2281(2007)) was analyzed. […] An increased proteolytic activity using the broad trypsin-like activity substrate Val-Pro-Arg (FIG. 10B) was observed.

KLK7 = KLK7 (Homo sapiens, UniProt P49862); assay: In vitro KLK7 activity assay in the presence of SPINK7; type: biochemical
Procedure: as §3

Sequence of KLK7 (P49862 30-253): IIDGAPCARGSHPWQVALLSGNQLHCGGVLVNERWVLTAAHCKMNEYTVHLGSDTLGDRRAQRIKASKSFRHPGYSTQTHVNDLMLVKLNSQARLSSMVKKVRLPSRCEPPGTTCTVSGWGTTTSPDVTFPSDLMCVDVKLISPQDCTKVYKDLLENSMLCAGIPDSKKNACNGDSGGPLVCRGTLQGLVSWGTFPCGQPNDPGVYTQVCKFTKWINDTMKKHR

- IC50 (KLK5 [1]): 52000 ± 12000 nM
- type of KLK5 inhibition (reversibility) (KLK5 [1]): non reversible inhibitors
Molecule: 3-(3-chlorophenyl) carboxy-7-hydroxymethyl coumarin [Compound I]

- IC50 (KLK5 [1]): 83 ± 8 nM
- type of KLK5 inhibition (reversibility) (KLK5 [1]): non reversible inhibitors
Molecule: O=C(O)c1cc2ccc(CO)cc2oc1=O [Compound II, 3-carboxy-7-hydroxymethyl coumarin]

Further lines, the molecule ahead of its results:

Molecule: A1AT: serine proteinase inhibitor alpha-1 anti-trypsin, administered to SPINK7-silenced cells [Compound A1AT]
- barrier function (electrical resistance) [2]: dose-dependent ability to improve barrier function
- filaggrin expression (Filaggrin): increased
- trypsin-like activity of supernatant of SPINK7 silenced cells [3]: inhibited
- epithelial integrity (inter-cellular spaces) [4]: decreased inter-cellular spaces

B1: SPINK7: serine proteinase inhibitor kazal-type 7 protein, tested in vitro against KLK5, KLK7, KLK11 and uPA (protein, UniProt P58062 20-85, looked up)
Serine protease inhibitor …: SEAASLSPKKVDCSIYKKYPVVAIPCPITYLPVCGSDYITYGNECHLCTESLKSNGRVQFLHDGSC
- inhibition of KLK11 (KLK11): did not inhibit
- inhibition of KLK5 proteolytic activity (KLK5 [5]; in vitro): inhibited
- Ki (KLK5 [5]; mean±SD, dose-dependent, read-out: Ki, inhibition of KLK5 proteolytic activity): 132 ± 108 nM
- inhibition of uPA proteolytic activity (uPA): directly inhibited
- inhibition of KLK7 (KLK7): did not inhibit; also recorded: not KLK7
